Source: patent US6893630B2, “Anti-microbial antiperspirant products” (Unilever Home & Personal Care USA, division of Conopco, Inc., priority 2000, dated 2005)
Entries after “also recorded” stand apart in the source; their conditions may differ. Where two headings read alike, the source gives them in different places.

Assays:
[1] = system: Staphylococcus epidermidis; test: Anti-microbial performance of chelators: growth inhibition in semi-synthetic medium by optical density; format: cell-based; conditions: for "micro-molar active" criterion (significant inhibition of growth, at least 30%, at 3×10^−6 mol.dm^−3 or less): S. epidermidis; for Inhibition of growth (%): chelator 3×10^−6 mol.dm^−3, 16 hours at 37° C., optical density at 600 nm vs control medium
Description: An axillary isolate of Staphylococcus epidermidis was grown overnight in 100 ml of tryptone soy broth (TSB, Oxoid Ltd). 10 ml of this culture was taken and subjected to centrifugation. The separated cells were re-suspended in 10 ml of phosphate buffered saline and the centrifugation procedure repeated. The washed cells were re-suspended in 10 ml of phosphate buffered saline to give the inoculum. 100 μl of the inoculum was added to 100 ml of semi-synthetic medium (SSM) containing (NH4)2SO4 (0.066 g), MgSO4.7H2O (0.012 g), KCl (0.1 g), KH2PO4 (0.27 g), Na2HPO4 (1.43 g), thiamin (0.1 mg), biotin (0.05 mg), Peptone P (0.05 g), and glucose (2.0 mmole) which had been previously sterilised by autoclaving at 121° C. for 20 minutes. The pH of the SSM was adjusted to 6.7 with HCl after sterilisation, prior to addition of the inoculum. This control medium was utilised in all of the in vitro inhibition studies. The chelator-containing test media were prepared in a similar manner, the chelator being introduced at a concentration of 3×10^−6 mol.dm^−3 before the pH adjustment with HCl.
100 μl of the S. epidermidis inoculum was introduced into the control medium and into test media containing the chelators indicated in Table 2. The cultures were inoculated at 37° C. (with agitation at 200 rpm) for 16 hours, and the optical density of the cultures measured at 600 nm to determine the extent of bacterial growth. By comparison of the optical density of the culture in the presence of chelating agent, to that of the control, the percentage inhibition of growth was established. (Optical density measurements were made on 1 in 4 dilutions of the cultures with 0.9% (w/v) saline, using 1 cm path length cuvettes, on a Pharmacia Biotech Ultrospec 200 Spectrophotometer.)

[2] = system: relevant micro-organism; conditions: cited from earlier work

Row | Structure (SMILES) | "micro-molar active" criterion (significant inhibition of growth, at least 30%, at 3×10^−6 mol.dm^−3 or less) [1] | Inhibition of growth (%) [1] [%] | MIC ([2]; stated by contrast, no source given) | MIC ([2]; literature values)
1 | O=C(O)CN(CC(=O)O)[C@@H]1CCCC[C@H]1N(CC(=O)O)CC(=O)O (relative stereo) [CDTA, trans-1,2-diaminocyclohexane-N,N,N′,N′-tetraacetic acid] | exclude; also recorded: fail this criterion | 12.3 |  | 
2 | O=C(O)CN(CCN(CC(=O)O)CC(=O)O)CCN(CC(=O)O)CC(=O)O [DTPA, diethylenetriaminepentaacetic acid] | capable of achieving significant inhibition; also recorded: meet the criterion | 56.5 |  | 
3 | O=C(O)CN(CCN(CC(=O)O)CC(=O)O)CC(=O)O [EDTA, ethylenediaminetetraacetic acid] | exclude; also recorded: fail this criterion | 0 |  | 
4 | O=C(O)CN(CCN(CCN(CC(=O)O)CC(=O)O)CC(=O)O)CCN(CC(=O)O)CC(=O)O [TTHA, triethylenetetraaminehexaacetic acid] | capable of achieving significant inhibition; also recorded: meet the criterion | 56.3 |  | 
5 | CCO [ethanol] |  |  | greater than 1 mg.ml^−1 | 
6 | CC(C)=CCCC(C)=CCCC(C)=CCO [farnesol, 3,7,11-trimethyldodeca-2,6,10-trienol] |  |  |  | ca. 25 μg.ml^−1
7 | Oc1cc(Cl)ccc1Oc1ccc(Cl)cc1Cl [triclosan, 2′,4,4′-trichloro,2-hydroxy-diphenyl ether] |  |  |  | 0.01 to 10 µg/mL
